The text below walks through data of ChEMBL document CHEMBL1121760, “Methotrexate analogues. 14. Synthesis of new gamma-substituted derivatives as dihydrofolate reductase inhibitors and potential anticancer agents” (1981).

The target in assay [1] is T1, Dihydrofolate reductase (Mus musculus) (UniProt P00375).
T1 sequence (whole entry): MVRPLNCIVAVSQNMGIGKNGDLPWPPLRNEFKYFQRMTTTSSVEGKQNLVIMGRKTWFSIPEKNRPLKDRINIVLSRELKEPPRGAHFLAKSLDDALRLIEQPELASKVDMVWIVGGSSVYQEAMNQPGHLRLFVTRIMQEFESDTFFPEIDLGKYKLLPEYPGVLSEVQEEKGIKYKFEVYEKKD
The conditions noted are these: L1210.
Description: Compound was tested for inhibition of L1210 dihydrofolate reductase by competitive [3H]MTX binding assay in L1210 mouse leukemia cell lines

In another assay the test system is L1210. Kind of assay: Growth inhibitory activity against L1210 mouse leukemia cell line. It counts as functional. Particulars: read-out: ID50 (the source's name).
The target of assay [2] is Dihydrofolate reductase (Lactobacillus casei) (UniProt P00381). Particulars: Lacticaseibacillus casei.
Chain of Dihydrofolate reductase (Lactobacillus casei) (P00381 whole entry): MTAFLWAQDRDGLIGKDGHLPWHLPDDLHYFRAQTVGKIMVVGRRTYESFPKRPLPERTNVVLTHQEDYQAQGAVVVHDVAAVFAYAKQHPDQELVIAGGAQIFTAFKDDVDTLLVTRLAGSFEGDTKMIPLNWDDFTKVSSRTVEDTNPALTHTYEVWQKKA
Description: Compound was tested for inhibition of Lactobacillus casei dihydrofolate reductase using competitive [3H]MTX binding assay
Assay [3] has the same target. The conditions noted are these: Lacticaseibacillus casei. The source holds these as a separate data set.
Description: Compound was tested for inhibition of Lactobacillus casei dihydrofolate reductase using spectrophotometric assay at 340 nm

In the case of `COC(=O)C(CCC(=O)OC(C)(C)C)NC(=O)c1ccc(N(C)Cc2cnc3nc(N)nc(N)c3n2)cc1` (stereo not given), the ID50 came out at 0.011 µM in assay [1], 3.9 µM in assay [2] and 0.33 µM in assay [3]. Besides, the IC50 in the assay with L1210 amounted to 4.9 µM.

In the case of `CCCCNC(=O)CCC(NC(=O)c1ccc(N(C)Cc2cnc3nc(N)nc(N)c3n2)cc1)C(=O)O` (stereo not given), the ID50 is 0.0033 µM in assay [1], 0.036 µM in assay [2] and 0.053 µM in assay [3]. In addition, in the assay with L1210, the IC50 was determined as 0.09 µM.

In the case of `CN(Cc1cnc2nc(N)nc(N)c2n1)c1ccc(C(=O)NC(CCC(=O)OC(C)(C)C)C(=O)O)cc1` (stereo not given), the results for the ID50 in assay [1], in assay [2] and in assay [3] were 0.0029 µM, 0.012 µM and 0.025 µM, respectively. Further, in the assay on L1210, the IC50 was found to be 0.02 µM.

As to `CN(Cc1cnc2nc(N)nc(N)c2n1)c1ccc(C(=O)N[C@@H](CCC(=O)O)C(=O)O)cc1` [METHOTREXATE], in the assay with L1210, the IC50 came to 0.01 µM.

For the compound `CN(Cc1cnc2nc(N)nc(N)c2n1)c1ccc(C(=O)NC(CCC(=O)NN)C(=O)O)cc1` (stereo not given), the values for the ID50 in assay [1], in assay [2] and in assay [3] were 0.012 µM, 0.013 µM and 0.0021 µM, respectively. Further, the IC50 in the assay on L1210 was 0.02 µM.

As for `CN(Cc1cnc2nc(N)nc(N)c2n1)c1ccc(C(=O)NC(CCC(=O)O)C(=O)OC(C)(C)C)cc1` (stereo not given), the figures for the ID50 in assay [1], in assay [2] and in assay [3] were 0.035 µM, 0.21 µM and 0.036 µM, respectively. Moreover, the IC50 with L1210 was found to be 5.2 µM.

For `CN(Cc1cnc2nc(N)nc(N)c2n1)c1ccc(C(=O)NC(CCC(=O)NN)C(=O)OC(C)(C)C)cc1` (stereo not given), in the assay on L1210, the IC50 came to 11 µM. The values for the ID50 in assay [2] and in assay [3] were 2.2 µM and 0.17 µM, respectively.

In assay [2], `CCCCNC(=O)CCC(NC(=O)c1ccc(N(C)Cc2cnc3nc(N)nc(N)c3n2)cc1)C(=O)OCc1ccccc1` (stereo not given) registered an ID50 of 0.25 µM.

As to `COC(=O)CCC(NC(=O)c1ccc(N(C)Cc2cnc3nc(N)nc(N)c3n2)cc1)C(=O)OC(C)(C)C` (stereo not given), the ID50 in assay [1] worked out at 0.019 µM; in assay [2], 2.2 µM; in assay [3] it was 0.2 µM. Further, the IC50 in the assay on L1210 is 9.7 µM.

In the case of `CN(Cc1cnc2nc(N)nc(N)c2n1)c1ccc(C(=O)NC(CCC(=O)NCc2ccccc2)C(=O)O)cc1` (stereo not given), in the assay with L1210, the IC50 was determined as 0.03 µM.
